Assays:
MOLM-16 = assay: MTS viability assay, 72 h; settings: MOLM16, 72 h
Experimental: (§8) On the same day, 50 μL of medium containing tested inhibitor was added to the wells. Each compound was tested at 8 concentrations, in triplicates. As a negative control, the medium containing 0.1% DMSO was used. […] Staurosporine was used at 10 μM as a positive control. One the day of drug addition, basal signal from untreated cells was measured from in triplicate to determine time zero (T0). […] GI50 and LC50 values were extrapolated from a variable (four-parameter) dose-response curve fitted in GraphPad Prism.

MOLM-16 (FLT3-WT) tumor = assay: MOLM-16 subcutaneous xenograft, single agent; assay type: in vivo, SCID/beige mice
From the text: All animals were handled in strict accordance with good animal practice as defined by the relevant national and local animal welfare bodies. SCID and SCID/beige C.B-17 mice were provided by Harlan Laboratories or Charles River Laboratories, and were maintained in pathogen free conditions. For the xenograft experiments, age-matched (9-11 weeks old) females were used. 5×10^6 of MV-4-11 or MOLM-16 cells were suspended in a mixture (1:1, v:v) of PBS with Matrigel (BD Biosciences,) and injected subcutaneously (sc), in a total volume of 100 μL, above the groin on the right hind limb. For MOLM-13 and KG-1 cells, a mixture (3:1, v:v) of PBS and Matrigel HC (BD Bioscience,) was used to inject 5 × 10^6 of cell per mouse subcutaneously (sc), in a total volume of 100 μL. When tumors reached 100-130 mm^3, mice were randomized into uniform groups (6-9 mice per group) and subsequently administered the compound. […] At the end of the experiment, mice were anesthetized with isofluran and blood samples for total cell counts and biochemistry were obtained by retro-orbital bleeding. […] 5×10^6 cells suspended in a mixture (3:1, v:v) of PBS and Matrigel were injected as described above. When the tumor volume reached ~120 mm^3, mice were randomized into uniform groups (5 mice per group) and the compound then administered. […] Tumor volume was monitored every second day and calculated using the formula: TV = (a^2×b)/2, where “a” is the short axis in millimeters, and “b” is the long axis in millimeters. Body weight was assessed every day.

[1] = Metabolic stability, liver S9 fraction; assay type: in vitro ADME; settings: Dog, 37 °C, read-out: Liver S9 fraction t1/2 (converted)
[2] = Metabolic stability, liver microsomes; assay type: in vitro ADME; settings: Human, 37 °C, read-out: Liver microsomes t1/2 (converted)
KASUMI-3 = assay: MTS viability assay, 72 h; settings: Kasumi-3, 72 h
Experimental: (§9) 15-25 ×10^3 of MV-4-11, MOLM-13, MOLM-14, MOLM-16, KG-1, Eol-1, SKM-1, PL-21, GDM-1, SKNO-1, RS4;11, Kasumi-3 and Kasumi-6 cells were seeded in 150 μL of culture medium onto individual wells in a 96 well plates, in triplicates. On the same day, 50 μL of medium containing tested inhibitor was added to the wells. Each compound was tested at 8 concentrations, in triplicates. As a negative control, the medium containing 0.1% DMSO was used. […] Staurosporine was used at 10 μM as a positive control. One the day of drug addition, basal signal from untreated cells was measured from in triplicate to determine time zero (T0). […] GI50 and LC50 values were extrapolated from a variable (four-parameter) dose-response curve fitted in GraphPad Prism.

FLT3wt = FLT3wt (Homo sapiens, UniProt P36888); assay: KINOMEscan Kd (DiscoverX); assay type: binding
OCI-AML-2 = assay: MTS viability assay, 72 h; settings: Homo sapiens, OCI-AML2, 72 h
Experimental: as §8

CYP2C9 = target: T1, CYP2C9 (Homo sapiens, UniProt P11712); assay: CYP isoforms inhibition; assay type: in vitro ADME; settings: 5-dose, 3-fold dilution starting at 30 µM
T1 construct: Cambridge Bioscience Limited (ran the assay)
Experimental: (§1) or absence of enzyme cofactors. The assay was performed microsomes. (Supplementary Table 7).
(§2) with the respective reference samples (i.e. without measured at Cambridge Bioscience Limited (except
(§3) cofactors). After incubation, drug transformation by liver CYP1A2 inhibition which was measured in-house). […]
(§4) The analysis of two standard compounds (i.e. positive a very weak potential for CYP inhibition with IC50
(§5) and negative controls) was included. […]

MOLM-6 = assay: MTS viability assay, 72 h; settings: 72 h
Experimental: as §9

FLT3 (N841I) = FLT3 (N841I) (Homo sapiens, UniProt P36888, N841I); assay: KINOMEscan Kd, specific screen against FLT3 mutants; assay type: binding
Experimental: (§6) Dissociation constants (Kd) and inhibition levels of FLT3 mutants were measured at DiscoverX using the KINOMEscan^TM Profiling Service (KdELECT).

FLT3 (R834Q) = FLT3 (R834Q) (Homo sapiens, UniProt P36888, R834Q); assay: as above; assay type: binding
Experimental: as §6

FLT3 (ITD) = FLT3 (ITD) (Homo sapiens, UniProt P36888, ITD); assay: as above; assay type: binding
Experimental: as §6

FLT3 (D835V) = FLT3 (D835V) (Homo sapiens, UniProt P36888, D835V); assay: as above; assay type: binding
Experimental: as §6

FLT3 (D835Y) = FLT3 (D835Y) (Homo sapiens, UniProt P36888, D835Y); assay: as above; assay type: binding
Experimental: as §6

[3] = Pharmacokinetics after oral and intravenous administration; assay type: in vivo, rats (Sprague Dawley); settings: male, plasma, Rat, Dose PO/IV 25/1 mg/kg
Experimental: therapeutic potential in acute myeloid leukemia
sheet for further calculations.
Three male Beagle dogs were administered

[4] = Metabolic stability, liver microsomes; assay type: in vitro ADME; settings: Mouse, 37 °C, read-out: Liver microsomes t1/2 (converted)
CYP3A4 = target: T2, CYP3A4 (Homo sapiens, UniProt P08684); assay: CYP isoforms inhibition; assay type: in vitro ADME; settings: 5-dose, 3-fold dilution starting at 30 µM
T2 construct: Cambridge Bioscience Limited (ran the assay)
Experimental: as §1, §2, §3
(§7) The control compound
as §4, §5

CYP2C19 = target: T3, CYP2C19 (Homo sapiens, UniProt P33261); assay: CYP isoforms inhibition; assay type: in vitro ADME; settings: 5-dose, 3-fold dilution starting at 30 µM
T3 construct: Cambridge Bioscience Limited (ran the assay)
Experimental: as §1, §2, §3, §7, §4, §5

CYP2D6 = target: T4, CYP2D6 (Homo sapiens, UniProt P10635); assay: CYP isoforms inhibition; assay type: in vitro ADME; settings: 5-dose, 3-fold dilution starting at 30 µM
T4 construct: Cambridge Bioscience Limited (ran the assay)
Experimental: as §1, §2, §3, §7, §4, §5

RS4;11 = assay: MTS viability assay, 72 h; settings: Homo sapiens, RS4-11, 72 h
Experimental: as §9

SKNO-1 = assay: MTS viability assay, 72 h; settings: SKNO-1, 72 h
Experimental: as §9

MV-4-11 = assay: Drug interactions (combination index), MTS; assay type: cell-based; settings: MV-4-11, broad range of concentrations
Experimental: and AC220 in AML cell lines was assessed using an MTS assay. Cells viability was measured after 72 h incubation with three-fold serial dilutions of compounds, starting at 10 µM concentration. Obtained data were presented as percentage of viable cells compared with control (untreated) cells viability. Error bars indicate SD.
11 cells. Combination index (CI) are shown on the Y axis and compound concentrations are shown on X and Z axes. Values […] and below 0.7- a synergy between tested compounds. Values above 1 indicate an antagonistic effect.
(1 picture or pasted object on this page, not shown here)

T2 sequence (P08684 whole entry, canonical isoform): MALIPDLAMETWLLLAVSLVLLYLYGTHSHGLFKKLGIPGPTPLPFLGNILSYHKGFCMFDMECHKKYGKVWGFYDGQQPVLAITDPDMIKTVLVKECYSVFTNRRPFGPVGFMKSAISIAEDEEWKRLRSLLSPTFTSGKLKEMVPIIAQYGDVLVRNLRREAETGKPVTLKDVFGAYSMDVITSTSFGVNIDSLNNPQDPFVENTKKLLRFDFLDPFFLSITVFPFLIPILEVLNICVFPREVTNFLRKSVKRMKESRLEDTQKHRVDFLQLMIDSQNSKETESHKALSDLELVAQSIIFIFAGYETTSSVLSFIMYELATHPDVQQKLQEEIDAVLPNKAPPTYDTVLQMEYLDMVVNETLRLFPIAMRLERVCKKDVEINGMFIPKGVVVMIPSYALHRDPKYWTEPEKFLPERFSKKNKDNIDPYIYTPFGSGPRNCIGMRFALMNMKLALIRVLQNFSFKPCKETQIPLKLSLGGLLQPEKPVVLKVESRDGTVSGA
T4 sequence (P10635 whole entry, canonical isoform): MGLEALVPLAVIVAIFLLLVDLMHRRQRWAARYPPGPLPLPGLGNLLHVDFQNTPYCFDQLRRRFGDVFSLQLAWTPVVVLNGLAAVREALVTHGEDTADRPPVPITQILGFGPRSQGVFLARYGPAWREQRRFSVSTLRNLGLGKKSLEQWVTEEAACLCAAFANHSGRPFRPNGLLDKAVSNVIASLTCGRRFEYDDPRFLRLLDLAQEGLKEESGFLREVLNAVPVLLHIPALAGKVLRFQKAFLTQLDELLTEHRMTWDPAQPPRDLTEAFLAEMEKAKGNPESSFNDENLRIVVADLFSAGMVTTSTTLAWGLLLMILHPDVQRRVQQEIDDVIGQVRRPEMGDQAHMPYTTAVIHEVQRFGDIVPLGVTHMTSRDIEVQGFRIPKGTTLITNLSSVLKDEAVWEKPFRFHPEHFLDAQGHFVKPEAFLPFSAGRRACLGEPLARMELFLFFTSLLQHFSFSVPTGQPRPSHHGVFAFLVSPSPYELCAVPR
T1 sequence (P11712 whole entry, canonical isoform): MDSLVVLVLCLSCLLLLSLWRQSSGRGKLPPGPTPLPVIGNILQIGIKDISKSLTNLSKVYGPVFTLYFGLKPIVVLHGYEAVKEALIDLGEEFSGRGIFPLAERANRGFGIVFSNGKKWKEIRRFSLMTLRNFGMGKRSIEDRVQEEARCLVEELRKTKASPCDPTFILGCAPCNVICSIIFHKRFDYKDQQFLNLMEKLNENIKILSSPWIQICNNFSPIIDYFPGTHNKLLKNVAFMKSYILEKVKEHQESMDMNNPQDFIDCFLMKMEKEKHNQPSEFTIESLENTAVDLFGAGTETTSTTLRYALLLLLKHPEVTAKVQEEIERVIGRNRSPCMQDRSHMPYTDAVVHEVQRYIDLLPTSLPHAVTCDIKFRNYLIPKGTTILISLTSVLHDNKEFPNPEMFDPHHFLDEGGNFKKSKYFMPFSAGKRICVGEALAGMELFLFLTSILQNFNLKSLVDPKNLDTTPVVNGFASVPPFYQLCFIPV
T3 sequence (P33261 whole entry, canonical isoform): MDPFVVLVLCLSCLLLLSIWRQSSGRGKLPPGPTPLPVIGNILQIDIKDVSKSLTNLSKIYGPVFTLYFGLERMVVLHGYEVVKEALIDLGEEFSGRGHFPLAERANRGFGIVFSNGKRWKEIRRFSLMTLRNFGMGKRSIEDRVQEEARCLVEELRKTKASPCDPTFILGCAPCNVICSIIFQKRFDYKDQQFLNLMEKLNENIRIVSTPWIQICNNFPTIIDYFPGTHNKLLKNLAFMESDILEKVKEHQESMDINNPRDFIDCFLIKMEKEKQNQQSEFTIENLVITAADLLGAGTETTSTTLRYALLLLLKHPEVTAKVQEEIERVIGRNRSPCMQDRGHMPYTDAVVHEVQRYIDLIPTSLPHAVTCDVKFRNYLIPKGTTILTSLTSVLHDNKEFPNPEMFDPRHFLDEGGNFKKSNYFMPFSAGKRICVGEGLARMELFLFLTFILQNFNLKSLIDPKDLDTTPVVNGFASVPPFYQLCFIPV

SMILES: CC(C)n1c(C2CCNCC2)nc2c([N+](=O)[O-])c(Br)c(Br)cc21 [SEL24-B489, 5,6-dibromo-4-nitro-2-(piperidin-4-yl)-1-(propan-2-yl)-1H-1,3-benzodiazole]
- GI50 (MOLM-16): 42 nM
- CC50 (MOLM-16; read-out: LC50): 153 nM
- TGI (MOLM-16 (FLT3-WT) tumor; MOLM-16, 25 mg/kg BID): ~ 100%
- TGI (MOLM-16 (FLT3-WT) tumor; MOLM-16, 50 mg/kg EOD): 79%
- TGI (MOLM-16 (FLT3-WT) tumor; MOLM-16, 50 mg/kg QD): ~ 100%
- half-life at 1 µM [1]: 6.3 h
- half-life at 1 µM [2]: 21.1 h
- GI50 (KASUMI-3): 633 nM
- CC50 (KASUMI-3; read-out: LC50): 2330 nM
- Kd (FLT3wt): 160 nM
- GI50 (OCI-AML-2): 960 nM
- CC50 (OCI-AML-2; read-out: LC50): 2320 nM
- IC50 (CYP2C9): > 150000 nM
- GI50 (MOLM-6): 449 nM
- CC50 (MOLM-6; read-out: LC50): 7200 nM
- Kd (FLT3 (N841I)): 150 nM
- Kd (FLT3 (R834Q)): 3200 nM
- Kd (FLT3 (ITD)): 12 nM
- Kd (FLT3 (D835V)): 11 nM
- Kd (FLT3 (D835Y)): 16 nM
- Cmax ([3]; Sprague Dawley, 25 mg/kg): 913 ng/mL
- Tmax ([3]; Sprague Dawley, 25 mg/kg): 6.7 h
- AUC(0-t) ([3]; Sprague Dawley): 19600 ng·h/mL
- half-life ([3]; Sprague Dawley): 10 h
- bioavailability ([3]; Sprague-Dawley, 25 mg/kg, read-out: F (bioavailability)): 52%
- half-life at 1 µM [4]: 7.2 h
- IC50 (CYP3A4): > 100000 nM
- IC50 (CYP2C19): > 70000 nM
- IC50 (CYP2D6): 10000 nM
- GI50 (RS4;11): 190 nM
- CC50 (RS4;11; read-out: LC50): 2160 nM
- GI50 (SKNO-1): 18 nM
- pharmacological interaction with AraC (MV-4-11): marked synergy
- pharmacological interaction with vosaroxin (MV-4-11): marked synergy
